Tested on: HeLa cell
Experiment: HeLa cell apoptosis assay, Cell Death Detection ELISA plus kit
Assay type: cell-based
Parameters: unit not given here
Procedure: The following exemplary compounds were evaluated for their effect on a HeLa cell apoptosis assay using the Cell Death Detection ELISA plus kit from Roche Applied Science.

## Oc1ccc(/C=C/c2cc(O)cc(O)c2)cc1 [Resveratol]
Dose 0.5
  average (HeLa apoptosis assay): 0.83
Dose 2.5
  average (HeLa apoptosis assay): 0.84
Dose 10
  average (HeLa apoptosis assay): 1.01
Dose 25
  average (HeLa apoptosis assay): 0.56

## Cn1c2c(c3cc(Cl)ccc31)C(C(N)=O)CCC2 (centres unmarked) [Compound 5]
Dose 0.5
  average (HeLa apoptosis assay): 1.00
Dose 2.5
  average (HeLa apoptosis assay): 0.97
Dose 10
  average (HeLa apoptosis assay): 1.07
Dose 25
  average (HeLa apoptosis assay): 0.91

From US20080214800A1, “SIRT INHIBITORS THAT BIND TO NAD” (Elixir Pharmaceuticals, Inc., priority 2005, published 2008)
